Laboratory results taken from ChEMBL document CHEMBL5291721, “A preclinical secondary pharmacology resource illuminates target-adverse drug reaction associations of marketed drugs” (Nat Commun, 2023).

Tests used:
[1] = molecular target: Histamine H3 receptor (Homo sapiens, UniProt Q9Y5N1)
[2] = molecular target: T1, Prostaglandin G/H synthase 1 (Homo sapiens, UniProt P23219); type: functional
[3] = molecular target: Sodium-dependent dopamine transporter (Homo sapiens, UniProt Q01959)
[4] = molecular target: Sodium-dependent noradrenaline transporter (Homo sapiens, UniProt P23975)
[5] = molecular target: T2, Adenosine receptor A3 (Homo sapiens, UniProt P0DMS8)
T2 sequence (P0DMS8 whole entry): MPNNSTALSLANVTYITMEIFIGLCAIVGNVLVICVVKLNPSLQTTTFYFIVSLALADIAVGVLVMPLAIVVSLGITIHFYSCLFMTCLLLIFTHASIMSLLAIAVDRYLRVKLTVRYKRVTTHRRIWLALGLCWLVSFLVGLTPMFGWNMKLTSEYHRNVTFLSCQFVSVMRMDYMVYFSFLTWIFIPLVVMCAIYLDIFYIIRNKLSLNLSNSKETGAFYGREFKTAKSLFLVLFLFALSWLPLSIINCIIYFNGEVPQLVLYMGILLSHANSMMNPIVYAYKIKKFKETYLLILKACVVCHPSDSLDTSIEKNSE

[6] = molecular target: D(1A) dopamine receptor (Homo sapiens, UniProt P21728)
[7] = molecular target: T1, Prostaglandin G/H synthase 1; type: functional; remark: listed apart in the source
[8] = molecular target: T3, Peroxisome proliferator-activated receptor gamma (Homo sapiens, UniProt P37231); type: functional
T3 sequence (P37231 whole entry): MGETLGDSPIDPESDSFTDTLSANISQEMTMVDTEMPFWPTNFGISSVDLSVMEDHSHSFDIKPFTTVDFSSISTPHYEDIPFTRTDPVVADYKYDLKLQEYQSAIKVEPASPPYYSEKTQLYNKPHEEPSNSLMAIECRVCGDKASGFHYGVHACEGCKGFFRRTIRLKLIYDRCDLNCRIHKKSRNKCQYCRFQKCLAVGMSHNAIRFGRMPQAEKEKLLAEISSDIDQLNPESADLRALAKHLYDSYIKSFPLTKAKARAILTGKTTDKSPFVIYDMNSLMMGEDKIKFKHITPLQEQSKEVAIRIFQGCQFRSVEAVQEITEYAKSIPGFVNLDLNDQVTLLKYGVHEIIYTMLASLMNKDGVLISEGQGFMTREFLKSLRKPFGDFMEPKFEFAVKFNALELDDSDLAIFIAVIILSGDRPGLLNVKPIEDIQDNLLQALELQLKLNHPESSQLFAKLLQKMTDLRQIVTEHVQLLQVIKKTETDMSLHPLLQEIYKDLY

[9] = molecular target: Voltage-dependent N-type calcium channel subunit alpha-1B (Rattus norvegicus, UniProt Q02294); type: functional
[10] = molecular target: T4, Endothelin receptor type B (Homo sapiens, UniProt P24530)
T4 sequence (P24530 whole entry): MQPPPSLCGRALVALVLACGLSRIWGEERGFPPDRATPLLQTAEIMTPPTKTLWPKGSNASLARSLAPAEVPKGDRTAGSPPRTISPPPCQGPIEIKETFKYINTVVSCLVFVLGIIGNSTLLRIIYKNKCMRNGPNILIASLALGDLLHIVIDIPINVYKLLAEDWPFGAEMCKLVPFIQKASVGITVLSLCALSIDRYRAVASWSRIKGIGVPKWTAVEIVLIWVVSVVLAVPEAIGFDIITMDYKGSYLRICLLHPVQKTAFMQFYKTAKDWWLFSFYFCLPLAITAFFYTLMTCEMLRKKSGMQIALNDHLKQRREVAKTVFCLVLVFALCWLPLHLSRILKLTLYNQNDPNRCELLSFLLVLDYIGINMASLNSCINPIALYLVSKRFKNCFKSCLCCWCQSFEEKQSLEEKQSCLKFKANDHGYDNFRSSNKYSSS

[11] = molecular target: Neurotensin receptor type 1 (Homo sapiens, UniProt P30989)
[12] = molecular target: T5, Muscarinic acetylcholine receptor M2 (Homo sapiens, UniProt P08172)
T5 sequence (P08172 whole entry): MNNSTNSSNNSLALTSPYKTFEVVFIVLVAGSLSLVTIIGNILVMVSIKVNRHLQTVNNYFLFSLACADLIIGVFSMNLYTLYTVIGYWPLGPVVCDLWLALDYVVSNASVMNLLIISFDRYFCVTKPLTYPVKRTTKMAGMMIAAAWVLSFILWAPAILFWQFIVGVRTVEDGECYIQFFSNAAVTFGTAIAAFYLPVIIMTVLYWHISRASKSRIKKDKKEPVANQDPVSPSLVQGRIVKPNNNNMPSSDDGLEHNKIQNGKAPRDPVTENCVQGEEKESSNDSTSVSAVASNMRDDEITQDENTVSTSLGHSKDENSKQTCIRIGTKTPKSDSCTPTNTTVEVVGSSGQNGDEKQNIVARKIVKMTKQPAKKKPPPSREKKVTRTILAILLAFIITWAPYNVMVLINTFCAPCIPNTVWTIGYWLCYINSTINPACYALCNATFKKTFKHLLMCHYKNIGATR

[13] = molecular target: T6, Corticotropin-releasing factor receptor 2 (Homo sapiens, UniProt Q13324)
T6 sequence (Q13324 whole entry): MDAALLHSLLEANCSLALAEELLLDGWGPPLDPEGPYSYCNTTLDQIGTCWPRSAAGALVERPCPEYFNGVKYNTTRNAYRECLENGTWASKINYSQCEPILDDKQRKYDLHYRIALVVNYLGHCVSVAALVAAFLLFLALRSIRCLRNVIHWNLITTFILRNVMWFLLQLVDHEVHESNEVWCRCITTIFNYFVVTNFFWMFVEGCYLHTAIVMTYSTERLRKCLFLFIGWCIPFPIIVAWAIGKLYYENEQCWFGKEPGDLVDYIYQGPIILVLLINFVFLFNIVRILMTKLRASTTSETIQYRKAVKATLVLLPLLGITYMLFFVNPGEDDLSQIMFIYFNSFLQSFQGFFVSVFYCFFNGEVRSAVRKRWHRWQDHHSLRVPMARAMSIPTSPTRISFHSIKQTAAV

[14] = molecular target: Histamine H2 receptor (Homo sapiens, UniProt P25021)
Also: assay procedure not described here.

T1 sequence (P23219 whole entry): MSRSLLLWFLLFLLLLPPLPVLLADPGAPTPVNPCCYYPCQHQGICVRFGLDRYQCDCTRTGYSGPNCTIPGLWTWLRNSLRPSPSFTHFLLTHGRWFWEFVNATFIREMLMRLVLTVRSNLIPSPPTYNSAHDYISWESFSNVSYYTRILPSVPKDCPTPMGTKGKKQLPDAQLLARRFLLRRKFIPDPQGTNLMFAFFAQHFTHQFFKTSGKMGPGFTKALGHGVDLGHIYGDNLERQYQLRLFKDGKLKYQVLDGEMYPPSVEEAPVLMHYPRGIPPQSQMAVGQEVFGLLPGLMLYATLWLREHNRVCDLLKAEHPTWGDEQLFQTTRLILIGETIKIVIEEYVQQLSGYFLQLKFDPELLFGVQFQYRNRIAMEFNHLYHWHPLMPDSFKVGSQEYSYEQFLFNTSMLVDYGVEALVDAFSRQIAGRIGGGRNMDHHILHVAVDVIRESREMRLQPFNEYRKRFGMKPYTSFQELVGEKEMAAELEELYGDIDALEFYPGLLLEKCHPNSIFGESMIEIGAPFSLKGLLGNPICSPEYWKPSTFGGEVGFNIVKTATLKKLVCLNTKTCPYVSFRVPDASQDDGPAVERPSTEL
Chain of D(1A) dopamine receptor (P21728 whole entry): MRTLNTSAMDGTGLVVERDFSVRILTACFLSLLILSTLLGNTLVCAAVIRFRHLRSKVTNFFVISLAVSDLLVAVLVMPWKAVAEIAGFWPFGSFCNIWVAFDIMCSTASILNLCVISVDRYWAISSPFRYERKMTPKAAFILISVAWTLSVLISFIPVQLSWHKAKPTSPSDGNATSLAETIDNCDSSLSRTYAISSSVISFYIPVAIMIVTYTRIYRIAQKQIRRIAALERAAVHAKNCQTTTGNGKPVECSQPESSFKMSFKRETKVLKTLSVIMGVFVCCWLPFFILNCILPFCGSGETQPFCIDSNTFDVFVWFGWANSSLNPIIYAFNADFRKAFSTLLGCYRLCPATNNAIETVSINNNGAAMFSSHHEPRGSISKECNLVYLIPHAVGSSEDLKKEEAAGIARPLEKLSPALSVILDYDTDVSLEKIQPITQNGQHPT
Chain of Histamine H3 receptor (Q9Y5N1 whole entry): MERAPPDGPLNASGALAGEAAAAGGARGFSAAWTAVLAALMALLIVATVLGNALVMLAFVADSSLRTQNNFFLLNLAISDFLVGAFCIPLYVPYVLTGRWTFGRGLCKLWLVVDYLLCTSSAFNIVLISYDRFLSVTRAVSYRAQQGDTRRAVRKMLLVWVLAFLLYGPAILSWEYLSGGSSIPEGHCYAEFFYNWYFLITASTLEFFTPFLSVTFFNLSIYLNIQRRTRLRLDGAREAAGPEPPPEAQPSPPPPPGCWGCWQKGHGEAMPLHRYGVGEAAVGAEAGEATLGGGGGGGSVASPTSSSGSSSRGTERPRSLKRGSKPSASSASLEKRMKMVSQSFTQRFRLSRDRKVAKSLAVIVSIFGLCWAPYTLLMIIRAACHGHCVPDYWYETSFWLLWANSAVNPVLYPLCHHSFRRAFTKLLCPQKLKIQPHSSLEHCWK
Chain of Neurotensin receptor type 1 (P30989 whole entry): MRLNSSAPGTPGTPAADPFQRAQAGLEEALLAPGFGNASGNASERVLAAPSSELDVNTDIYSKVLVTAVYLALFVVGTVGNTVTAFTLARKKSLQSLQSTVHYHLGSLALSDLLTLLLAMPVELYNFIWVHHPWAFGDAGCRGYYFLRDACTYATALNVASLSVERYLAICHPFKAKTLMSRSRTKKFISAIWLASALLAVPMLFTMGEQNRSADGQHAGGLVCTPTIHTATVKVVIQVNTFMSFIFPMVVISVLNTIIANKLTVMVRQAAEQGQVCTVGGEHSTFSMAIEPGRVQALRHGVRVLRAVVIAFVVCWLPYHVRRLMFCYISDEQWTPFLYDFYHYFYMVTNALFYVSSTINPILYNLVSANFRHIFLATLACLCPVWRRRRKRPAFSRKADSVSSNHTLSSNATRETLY
Chain of Histamine H2 receptor (P25021 whole entry): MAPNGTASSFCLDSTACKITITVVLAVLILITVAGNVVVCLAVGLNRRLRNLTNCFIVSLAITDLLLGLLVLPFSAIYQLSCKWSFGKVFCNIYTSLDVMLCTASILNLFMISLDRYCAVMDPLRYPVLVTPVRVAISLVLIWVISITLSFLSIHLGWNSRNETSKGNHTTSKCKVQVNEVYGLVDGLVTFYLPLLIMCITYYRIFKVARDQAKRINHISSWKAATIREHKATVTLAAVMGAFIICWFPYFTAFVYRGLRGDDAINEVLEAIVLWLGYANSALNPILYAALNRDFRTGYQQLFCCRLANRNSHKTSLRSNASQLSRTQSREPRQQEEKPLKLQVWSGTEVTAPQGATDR
Chain of Voltage-dependent N-type calcium channel subunit alpha-1B (Q02294 whole entry): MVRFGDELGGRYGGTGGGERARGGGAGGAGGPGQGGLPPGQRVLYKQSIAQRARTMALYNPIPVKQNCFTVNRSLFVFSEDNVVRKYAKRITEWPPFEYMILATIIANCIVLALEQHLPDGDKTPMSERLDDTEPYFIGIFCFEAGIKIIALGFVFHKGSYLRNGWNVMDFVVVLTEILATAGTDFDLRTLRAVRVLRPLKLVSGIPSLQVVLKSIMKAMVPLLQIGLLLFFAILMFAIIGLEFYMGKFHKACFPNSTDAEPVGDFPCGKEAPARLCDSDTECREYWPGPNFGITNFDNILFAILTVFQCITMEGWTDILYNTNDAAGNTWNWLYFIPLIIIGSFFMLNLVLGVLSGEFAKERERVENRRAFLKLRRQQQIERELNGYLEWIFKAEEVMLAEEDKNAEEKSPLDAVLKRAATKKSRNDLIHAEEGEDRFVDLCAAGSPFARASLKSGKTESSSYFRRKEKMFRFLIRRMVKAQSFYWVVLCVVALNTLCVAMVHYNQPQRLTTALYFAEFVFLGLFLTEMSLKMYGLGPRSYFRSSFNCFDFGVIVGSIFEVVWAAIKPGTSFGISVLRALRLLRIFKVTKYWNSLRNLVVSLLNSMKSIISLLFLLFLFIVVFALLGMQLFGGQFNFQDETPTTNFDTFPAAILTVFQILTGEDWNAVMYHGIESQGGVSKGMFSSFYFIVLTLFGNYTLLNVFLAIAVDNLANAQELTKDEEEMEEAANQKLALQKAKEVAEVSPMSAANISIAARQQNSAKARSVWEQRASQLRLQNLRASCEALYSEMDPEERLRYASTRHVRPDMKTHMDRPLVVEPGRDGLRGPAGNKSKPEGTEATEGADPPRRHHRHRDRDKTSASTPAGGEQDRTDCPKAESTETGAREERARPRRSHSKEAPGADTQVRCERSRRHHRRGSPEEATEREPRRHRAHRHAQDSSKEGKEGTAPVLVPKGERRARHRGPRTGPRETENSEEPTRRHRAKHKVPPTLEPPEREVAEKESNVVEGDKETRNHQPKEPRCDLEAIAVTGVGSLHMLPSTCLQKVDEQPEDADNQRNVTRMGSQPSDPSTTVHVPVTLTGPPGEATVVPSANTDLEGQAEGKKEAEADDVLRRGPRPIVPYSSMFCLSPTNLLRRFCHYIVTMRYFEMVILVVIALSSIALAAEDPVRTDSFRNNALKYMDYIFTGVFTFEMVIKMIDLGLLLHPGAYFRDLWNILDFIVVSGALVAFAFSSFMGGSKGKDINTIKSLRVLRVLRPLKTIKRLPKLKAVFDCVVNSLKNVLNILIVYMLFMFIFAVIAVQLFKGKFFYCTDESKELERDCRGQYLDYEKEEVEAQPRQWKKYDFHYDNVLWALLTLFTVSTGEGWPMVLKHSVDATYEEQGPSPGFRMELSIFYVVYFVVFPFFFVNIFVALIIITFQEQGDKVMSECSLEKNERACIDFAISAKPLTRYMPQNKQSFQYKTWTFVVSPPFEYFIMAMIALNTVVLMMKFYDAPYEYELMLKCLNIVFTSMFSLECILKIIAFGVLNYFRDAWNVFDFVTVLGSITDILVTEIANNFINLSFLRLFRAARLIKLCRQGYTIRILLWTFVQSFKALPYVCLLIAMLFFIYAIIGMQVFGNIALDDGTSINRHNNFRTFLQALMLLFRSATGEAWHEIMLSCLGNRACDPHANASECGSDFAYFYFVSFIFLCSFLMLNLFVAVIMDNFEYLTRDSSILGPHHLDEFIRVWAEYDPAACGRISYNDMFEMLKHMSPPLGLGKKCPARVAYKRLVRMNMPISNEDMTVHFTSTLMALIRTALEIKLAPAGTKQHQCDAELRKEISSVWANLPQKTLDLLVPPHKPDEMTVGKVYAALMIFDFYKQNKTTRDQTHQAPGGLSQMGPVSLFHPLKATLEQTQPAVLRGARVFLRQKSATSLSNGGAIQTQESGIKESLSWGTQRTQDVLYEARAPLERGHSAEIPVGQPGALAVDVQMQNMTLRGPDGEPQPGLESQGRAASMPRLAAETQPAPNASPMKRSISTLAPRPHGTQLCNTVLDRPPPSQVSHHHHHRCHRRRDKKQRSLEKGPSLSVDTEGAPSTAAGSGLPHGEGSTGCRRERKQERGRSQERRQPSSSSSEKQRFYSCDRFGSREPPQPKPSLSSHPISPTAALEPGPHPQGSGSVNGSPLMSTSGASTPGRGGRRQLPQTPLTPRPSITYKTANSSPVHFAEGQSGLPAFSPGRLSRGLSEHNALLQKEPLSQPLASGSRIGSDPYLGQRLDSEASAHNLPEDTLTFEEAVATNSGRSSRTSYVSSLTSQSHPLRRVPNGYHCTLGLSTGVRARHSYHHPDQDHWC

O=C(O)CCCCC1CCSS1 (stereo not drawn) [LIPOIC ACID, ALPHA]
AC50 [1]: > 30 µM
AC50 [2]: > 30 µM
AC50 [3]: > 30 µM
AC50 [4]: > 30 µM
AC50 [5]: > 30 µM
AC50 [6]: > 30 µM
AC50 [7]: > 30 µM

Nc1c2ccccc2nc2ccccc12 [AMINACRINE]
AC50 [1]: > 30 µM
AC50 [2]: > 30 µM
AC50 [3]: > 30 µM
AC50 [4]: 2.95 µM
AC50 [5]: 9.62 µM
AC50 [6]: 11.7 µM
AC50 [7]: > 30 µM

Oc1ccc2c(c1)[C@@]13CCCC[C@@]1(O)[C@@H](C2)N(CC1CCC1)CC3 [BUTORPHANOL]
AC50 [8]: > 30 µM

CC(=O)OCC(=O)[C@@]1(O)[C@H](C)C[C@H]2[C@@H]3CCC4=CC(=O)C=C[C@]4(C)[C@@]3(F)[C@@H](O)C[C@@]21C [DEXAMETHASONE ACETATE]
AC50 [9]: > 10 µM
AC50 [10]: > 30 µM
AC50 [11]: > 30 µM
AC50 [12]: > 10 µM
AC50 [13]: > 30 µM

Cn1c(=O)cc(N2CCC[C@@H](N)C2)n(Cc2ccccc2C#N)c1=O [ALOGLIPTIN]
AC50 [9]: > 10 µM
AC50 [10]: > 30 µM
AC50 [11]: > 30 µM
AC50 [14]: > 10 µM
AC50 [12]: > 10 µM
AC50 [13]: > 30 µM

Cn1cnc2c(F)c(Nc3ccc(Br)cc3Cl)c(C(=O)NOCCO)cc21 [SELUMETINIB]
AC50 [14]: > 10 µM
AC50 [12]: > 10 µM

C[N@+]1(CCF)[C@@H]2CC[C@H]1C[C@@H](OC(=O)C(O)(c1ccccc1)c1ccccc1)C2
AC50 [12]: 0.2 µM

CCN1CCCC1CNC(=O)c1cc(S(=O)(=O)CC)c(N)cc1OC (stereo not given) [AMISULPRIDE]
AC50 [8]: > 30 µM
